Tested on: Sulfate-Reducing Bacteria
Assay: Qualitative test kit specific to sulfate-reducing bacteria, produced water samples
Format: cell-based
Conditions: produced water from the Piceance basin, 250 ppm glutaraldehyde, "Glut+butenolide" with a further 125 ppm butenolide
Description: Produced water samples from the Piceancebasin were tested for bacterial content in a simple qualitative test kit manufactured by “Droycon Boiconcepts Inc., specific to Sulfate-Reducing Bacteria. Three kits were used, labeled “No treatment”, “Glutaraldehyde”, and “Glut+butenolide”. The latter two bottles were treated with 250 ppm glutaraldehyde.
FIG. 1 is a photograph series that compares the experimental results of testing the effectiveness of biocide compositions.

Q: How did the “appearance of the test bottle (black residues characteristic of the presence of SRBs)” value (after 14 days) turn out when `O=CCCCC=O` [Glutaraldehyde, glutaraldehyde] was run?
A: The value was “clear and pale yellow”.

Q: And the “appearance of the test bottle (re-growth of SRBs, fine black residues)” value (after 17 days)?
A: Its value is “begun to show re-growth of SRBs”.

From patent US20130225675A1, “BACTERIAL CONTROL OF WATER BASED FLUIDS DURING […] AND […] TIME IN THE SU[…]” (SCHLUMBERGER TECHNOLOGY CORPORATION, priority 2010, published 2013)
